Data on 19 molecules can be found in patent US7897602B2, “Indolinone compounds as kinase inhibitors” (Development Center for Biotechnology, priority 2009, dated 2011).

One test concerns the target T1, Flt3 kinase (Homo sapiens, UniProt P36888).
T1 construct: recombinant N-terminal 6×His-tagged Flt3 kinase domain construct expressed from baculovirus; 6xHis (N); made in house
T1 sequence (P36888 610-943 limits assumed): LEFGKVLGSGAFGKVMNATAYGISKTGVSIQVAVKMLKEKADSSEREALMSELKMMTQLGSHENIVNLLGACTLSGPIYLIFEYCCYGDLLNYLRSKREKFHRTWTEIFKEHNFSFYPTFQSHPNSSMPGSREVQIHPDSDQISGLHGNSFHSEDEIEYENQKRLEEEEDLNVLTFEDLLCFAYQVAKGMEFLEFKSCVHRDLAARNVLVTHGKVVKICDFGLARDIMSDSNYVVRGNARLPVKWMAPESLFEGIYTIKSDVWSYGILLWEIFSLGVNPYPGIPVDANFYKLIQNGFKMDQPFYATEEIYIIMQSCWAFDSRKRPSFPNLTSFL
The test can be described thus: Flt3 kinase assay (33P incorporation into Poly(Glu-Tyr)). It counts as biochemical. To be noted: 100 nM test compound; read-out: Inhibition at 100 nM (%) Flt-3. How it is done: Inhibition of Flt3 kinase activity by compounds disclosed herein was quantified by measuring the amount of [^33P] incorporated into the substrate in the presence of a test compound. Briefly, a reaction mixture of 25 μL final volume containing 5 ng of Flt3 kinase (obtained by purifying recombinant N-terminal 6×His-tagged Flt3 kinase domain construct expressed from baculovirus), 5 μg of the substrate (Poly (Glu-Tyr, 4:1, Sigma)), kinase reaction buffer (20 mM MOPS pH 7.0, 1 mM EDTA, 5% glycerol, 0.01% Brij-35, 0.1% β-mercaptoethanol, 1 mg/mL BSA, 100 μM ATP, 0.1 μCi per well [^33P]-γ-ATP (2,500-3,000 Ci/mmol)), and a test compound (100 nM, diluted with 4% DMSO) or DMSO (as the control) was incubated at 30° C. for 30 minutes. The reaction was stopped by adding 5 μL of 3% phosphoric acid solution. The resultant reaction solution was then harvested onto a filter plate (UniFilter-96 GF/B, PerkinElmer), washed 20 times for 5 min with d.d. H2O, and followed by the addition of 30 μL of MicroScint™-20 Cocktail (PerkinElmer). The plate was then sealed and counted using a TopCount scintillation detector (PerkinElmer). The percentage of inhibition rate of the test compound was calculated by dividing the retained radioactivity of the test sample with the retained radioactivity of the control sample and shown in Table 3.

For the next test, the target named is T2, VEGFR2 kinase (Homo sapiens, UniProt P35968).
T2 construct: recombinant N-terminal 6×His-tagged VEGFR2 kinase domain construct expressed by baculovirus; 6xHis (N); made in house
The test is described as follows: VEGFR2 kinase assay (33P incorporation into Poly(Glu-Tyr)). It counts as biochemical. To be noted: 500 nM test compound; read-out: Inhibition at 500 nM (%) VEGFr-2. As for the experimental part: Inhibition of VEGFR2 kinase activity by compounds disclosed herein was quantified by measuring the amount of [^33P] incorporated into the substrate in the presence of a test compound. Specifically, a reaction mixture with a final volume of 25 μL and containing 6.25 ng of VEGFR2 kinase (obtained by purifying recombinant N-terminal 6×His-tagged VEGFR2 kinase domain construct expressed by baculovirus), 5 μg of substrate (Poly (Glu-Tyr, 4:1, Sigma)), kinase reaction buffer (20 mM MOPS pH 7.0, 1 mM EDTA, 5% glycerol, 0.01% Brij-35, 0.1% β-mercaptoethanol, 1 mg/mL BSA, 100 μM ATP, 0.1 μCi per well [^33P]-γ-ATP (2,500-3,000 Ci/mmol), and 500 nM test compound (final concentration of DMSO was 4%) or 4% DMSO alone (as the control sample), was incubated at 30° C. for 30 minutes. The reaction was then stopped by adding 5 μL of 3% phosphoric acid solution. The resultant solution was transferred to and harvested by a filter plate (UniFilter-96 GF/B, PerkinElmer). The filter plate was then washed 20 times with d.d. H2O for 5 min followed by the addition of 30 μL of MicroScint™-20 Cocktail (PerkinElmer). After the plate was sealed, the retained radioactivity on the filter was counted using a TopCount scintillation detector (PerkinElmer). The percentage of inhibition rate of the test compound was calculated by dividing the retained radioactivity of the test sample with the retained radioactivity of the control sample and shown in Table 3.

T2 sequence (P35968 834-1162 limits assumed): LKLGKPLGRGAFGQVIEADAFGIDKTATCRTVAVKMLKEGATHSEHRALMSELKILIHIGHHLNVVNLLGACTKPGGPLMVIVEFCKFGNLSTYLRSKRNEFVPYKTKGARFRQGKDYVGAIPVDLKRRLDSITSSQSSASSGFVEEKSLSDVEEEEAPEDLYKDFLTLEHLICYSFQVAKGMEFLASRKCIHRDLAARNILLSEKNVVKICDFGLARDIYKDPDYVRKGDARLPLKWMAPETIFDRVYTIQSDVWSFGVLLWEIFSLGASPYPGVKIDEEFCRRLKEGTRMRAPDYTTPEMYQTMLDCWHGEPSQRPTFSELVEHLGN

As usually defined, the inhibition is the percentage by which the read-out fell short of the control. Regarding `CCOC(=O)CCc1c(/C=C2\C(=O)Nc3cc(-c4cc(F)cc(F)c4)ccc32)[nH]c2c1C(=O)CCC2` [DCB-70100, (Z)-6-(3,5-difluorophenyl)-3-((3-(3-ethoxy-3-oxopropyl)-4-oxo-4,5,6,7-tetrahydro-1H-indol-2-yl)methylene)indolin-2-one], the inhibition at 0.1 µM at Flt3 kinase was determined as 12.5%. For the same molecule, the inhibition at 0.5 µM at VEGFR2 kinase was determined as 17.7%.
`CCOC(=O)CCc1c(/C=C2\C(=O)Nc3ccc(F)cc32)[nH]c2c1C(=O)CCC2` [DCB-70053, (Z)-5-fluoro-3-((3-(3-ethoxy-3-oxopropyl)-4-oxo-4,5,6,7-tetrahydro-1H-indol-2-yl)methylene)indolin-2-one]: the inhibition at 0.1 µM at Flt3 kinase stood at 97.3%. Besides, the inhibition at 0.5 µM at VEGFR2 kinase was 85.2%.
Turning to `CCOC(=O)CCc1c(/C=C2\C(=O)Nc3ccc(NC(=O)Nc4ccc(OC)cc4)cc32)[nH]c2c1C(=O)CCC2` [DCB-70092, (Z)-5-(3-(4-methoxyphenyl)ureido)-3-((3-(3-ethoxy-3-oxopropyl)-4-oxo-4,5,6,7-tetrahydro-1H-indol-2-yl)methylene)indolin-2-one], the inhibition at 0.1 µM on Flt3 kinase was determined as 22.5%. For the same molecule, the inhibition at 0.5 µM on VEGFR2 kinase was 30.2%.
Regarding `O=C(O)CCc1c(/C=C2\C(=O)Nc3ccc(S(=O)(=O)Cc4c(Cl)cccc4Cl)cc32)[nH]c2c1C(=O)CCC2` [DCB-70073, (Z)-5-(2,6-dichlorobenzylsulfonyl)-3-((3-carboxyethyl-4-oxo-4,5,6,7-tetrahydro-1H-indol-2-yl)methylene)indolin-2-one], the inhibition at 0.1 µM on Flt3 kinase was 1.4%. Moreover, the inhibition at 0.5 µM on VEGFR2 kinase is 71.3%.
Turning to `CCOC(=O)CCc1c(/C=C2\C(=O)Nc3ccc(-c4ccc(O)c(OC)c4)cc32)[nH]c2c1C(=O)CCC2` [DCB-70058, (Z)-5-(4-hydroxyl-3-methoxyphenyl)-3-((3-(3-ethoxy-3-oxopropyl)-4-oxo-4,5,6,7-tetrahydro-1H-indol-2-yl)methylene)indolin-2-one], at Flt3 kinase, the inhibition at 0.1 µM worked out at 55.1%. The inhibition at 0.5 µM at VEGFR2 kinase amounted to 46.3%.
For `CNS(=O)(=O)c1ccc2c(c1)/C(=C/c1[nH]c3c(c1CCC(=O)N1CCN(C)CC1)C(=O)CCC3)C(=O)N2` [DCB-70117], the inhibition at 0.1 µM on Flt3 kinase was determined as 48.3%. In addition, the inhibition at 0.5 µM at VEGFR2 kinase was 43.3%.
The corresponding values for `O=C(O)CCc1c(/C=C2\C(=O)Nc3ccc(S(=O)(=O)N4CCCC4)cc32)[nH]c2c1C(=O)CCC2` [DCB-70087, (Z)-5-(pyrrolidin-1-ylsulfonyl)-3-((3-carboxyethyl-4-oxo-4,5,6,7-tetrahydro-1H-indol-2-yl)methylene)indolin-2-one] are 1.4% and 26.3%.
As for `CCOC(=O)CCc1c(/C=C2\C(=O)Nc3cc(-c4ccc(F)cc4)ccc32)[nH]c2c1C(=O)CCC2` [DCB-70098, (Z)-6-(4-fluorophenyl)-3-((3-(3-ethoxy-3-oxopropyl)-4-oxo-4,5,6,7-tetrahydro-1H-indol-2-yl)methylene)indolin-2-one], the inhibition at 0.1 µM on Flt3 kinase worked out at 4.8%. Also, the inhibition at 0.5 µM at VEGFR2 kinase amounted to 20.4%.
For the molecule `CCOC(=O)CCc1c(/C=C2\C(=O)Nc3ccc(NS(=O)(=O)c4ccc(F)cc4)cc32)[nH]c2c1C(=O)CCC2` [DCB-70144, (Z)-ethyl 3-(2-((5-(4-fluorophenylsulfonamido)-2-oxoindolin-3-ylidene)methyl)-4-oxo-4,5,6,7-tetrahydro-1H-indol-3-yl)propanoate], the inhibition at 0.1 µM on Flt3 kinase is 38.7%. Moreover, the inhibition at 0.5 µM at VEGFR2 kinase turned out to be 40.8%.
On to `O=C(O)CCc1c(/C=C2\C(=O)Nc3ccc(NS(=O)(=O)c4ccc(F)cc4)cc32)[nH]c2c1C(=O)CCC2` [DCB-70145, (Z)-3-(2-((5-(4-fluorophenylsulfonamido)-2-oxoindolin-3-ylidene)methyl)-4-oxo-4,5,6,7-tetrahydro-1H-indol-3-yl)propanoic acid], for which the inhibition at 0.1 µM at Flt3 kinase was 24%. Besides, the inhibition at 0.5 µM at VEGFR2 kinase was 66.6%.
`CCOC(=O)CCc1c(/C=C2\C(=O)Nc3ccc([N+](=O)[O-])cc32)[nH]c2c1C(=O)CCC2` [DCB-70062, (Z)-5-nitro-3-((3-(3-ethoxy-3-oxopropyl)-4-oxo-4,5,6,7-tetrahydro-1H-indol-2-yl)methylene)indolin-2-one]: the inhibition at 0.1 µM on Flt3 kinase was 91.6%. Also, the inhibition at 0.5 µM on VEGFR2 kinase worked out at 60.2%.
The corresponding values for `O=C(O)CCc1c(C=C2C(=S)Nc3cc(Br)ccc32)[nH]c2c1C(=O)CCC2` [DCB-70086, 6-bromo-3-((3-carboxyethyl-4-oxo-4,5,6,7-tetrahydro-1H-indol-2-yl)methylene)indolin-2-thione] are 0.5% and 21.9%.
The like results for `CCOC(=O)CCc1c(/C=C2\C(=O)Nc3cc(-c4ccc(O)c(OC)c4)ccc32)[nH]c2c1C(=O)CCC2` [DCB-70081, (Z)-6-(4-hydroxy-3-methoxyphenyl)-3-((3-(3-ethoxy-3-oxopropyl)-4-oxo-4,5,6,7-tetrahydro-1H-indol-2-yl)methylene)indolin-2-one] were, in that order, 30% and 80%.
As to `CCOC(=O)CCc1c(/C=C2\C(=O)Nc3ccc(-c4ccc(OC)c(OC)c4)cc32)[nH]c2c1C(=O)CCC2` [DCB-70067, (Z)-5-(3,4-dimethoxyphenyl)-3-((3-(3-ethoxy-3-oxopropyl)-4-oxo-4,5,6,7-tetrahydro-1H-indol-2-yl)methylene)indolin-2-one], the inhibition at 0.1 µM at Flt3 kinase was 21.2%. On VEGFR2 kinase, the inhibition at 0.5 µM is 27.2%.
In the case of `CCOC(=O)CCc1c(/C=C2\C(=O)Nc3ccc(S(=O)(=O)NC)cc32)[nH]c2c1C(=O)CCC2` [DCB-70064, (Z)-5-(N-methylsulfamoyl)-3-((3-(3-ethoxy-3-oxopropyl)-4-oxo-4,5,6,7-tetrahydro-1H-indol-2-yl)methylene)indolin-2-one], the inhibition at 0.1 µM on Flt3 kinase was found to be 25.7%. Moreover, the inhibition at 0.5 µM at VEGFR2 kinase amounted to 39%.
`CCOC(=O)CCc1c(/C=C2\C(=O)Nc3cc(-c4cc5ccccc5s4)ccc32)[nH]c2c1C(=O)CCC2` [DCB-70079, (Z)-6-(benzo[b]thiophen-2-yl)-3-((3-(3-ethoxy-3-oxopropyl)-4-oxo-4,5,6,7-tetrahydro-1H-indol-2-yl)methylene)indolin-2-one]: on Flt3 kinase, the inhibition at 0.1 µM worked out at 1.1%. For the same molecule, at VEGFR2 kinase, the inhibition at 0.5 µM is 15.6%.
Regarding `O=C(O)CCc1c(/C=C2\C(=O)Nc3ccccc32)[nH]c2c1C(=O)CCC2` [DCB-70052, (Z)-3-((3-carboxyethyl-4-oxo-4,5,6,7-tetrahydro-1H-indol-2-yl)methylene)indolin-2-one], the inhibition at 0.1 µM on Flt3 kinase was 72.1%. Further, the inhibition at 0.5 µM at VEGFR2 kinase turned out to be 85%.
Regarding `COc1cc(-c2ccc3c(c2)NC(=O)/C3=C\c2[nH]c3c(c2CCC(=O)O)C(=O)CCC3)ccc1O` [DCB-70082, (Z)-6-(4-hydroxy-3-methoxyphenyl)-3-((3-carboxyethyl-4-oxo-4,5,6,7-tetrahydro-1H-indol-2-yl)methylene)indolin-2-one], the inhibition at 0.1 µM at Flt3 kinase was 35.1%. In addition, the inhibition at 0.5 µM at VEGFR2 kinase is 95.8%.
As to `O=C(O)CCc1c(/C=C2\C(=O)Nc3ccc(S(=O)(=O)N4CCc5ccccc54)cc32)[nH]c2c1C(=O)CCC2` [DCB-70106, (Z)-5-(indolin-1-ylsulfonyl)-3-((3-carboxyethyl-4-oxo-4,5,6,7-tetrahydro-1H-indol-2-yl)methylene)indolin-2-one], the inhibition at 0.1 µM on Flt3 kinase stood at 10.2%. Moreover, the inhibition at 0.5 µM at VEGFR2 kinase amounted to 46.4%.
